Assay [1] is described as follows: ABTS-Assay (in vitro), anti-oxidative capacity. To be noted: photometric at 734 nm, average of at least 2 independent experiments. How it is done: With the help of the ABTS-assay the anti-oxidative capacity of test substances is measured. 2,2′-azino bis-(3-ethylbenzothiazoline 6-sulfonic acid) (ABTS) is transformed by potassium persulfate into the blue-green radical cation ABTS•+. Through the addition of antioxidants (test substance) the radical cations are reduced and discoloration takes place, which is determined photometrically at 734 nm.
[formula] A test substance=absorption of the wells with test substance • A control=absorption of the wells without test substance
From the inhibition of the radical formation [%] in a series of dilutions of tested samples the IC50 is calculated. This is the concentration at which the radical formation is inhibited by 50%.

The test system of assay [2] is CCAAT enhancer binding protein α (C/EBPα). The assay can be described thus: Real Time-PCR, expression of differentiation marker C/EBPα in 3T3-L1-cells. The assay is classed as cell-based, mouse. Particulars: fold induction compared to hormone mix stimulation (set equal to one). How it is done:
(§1) 3T3-L1-cells (mouse embryonic fibroblast-like preadipocytes cell line) were propagated in Dulbecco's Modified Eagle Medium (DMEM), enriched with 10% newborn calf serum (CS) at 37° C. and 5% CO2 and seeded in 12-well plates for gene expression analysis. After reaching confluence at day −2, the differentiation was induced by changing medium at day 0 to DMEM with 10% fetal calf serum (FCS) containing a hormone mix (HM) of 1 μg/ml insulin, 0.25 μM dexamethasone (Dex) and 0.5 mM 3-isobutyl-1-methylxanthine (IBMX). Compounds of interest such as compound of formula (I) are applied from day −2 (confluence of the cells) until day 2 using various concentrations. Medium is renewed every other day. At day 2, medium consisting of DMEM, 10% FCS and 1 μg/ml insulin is added. From day 4 on, only DMEM containing 10% FCS is used for further cultivation of cells. […]
(§2) Total RNA from cell culture samples was isolated using RNeasy Total RNA Kits (Qiagen, Hilden; Germany). The RNA concentration and purity was determined photometrically using 260/280 ratios (Biophotometer, Eppendorf, Hamburg, Germany). […] At least three independent experiments were performed with 2 determinations each and the mean value of these was calculated. […] Each sample was analyzed in duplicate employing the universal protocol over 46 cycles. […]

The subject of the next assay is adiponectin. The assay can be described thus: Real Time-PCR, expression of differentiation marker adiponectin in 3T3-L1-cells. To be noted: fold induction compared to hormone mix stimulation (set equal to one). In kind it is cell-based, mouse. How it is done: as §1, §2
The subject of assay [3] is 3T3-L1-cells (mouse embryonic fibroblast-like preadipocytes cell line). Description: Lipolysis assay (in vitro), free glycerol in supernatant. In kind it is cell-based. To be noted: added at day 10 for 20 hours, basal lipolysis = 100%. How it is done:
3T3-L1-cells (mouse embryonic fibroblast-like preadipocytes cell line) were propagated in Dulbecco's Modified Eagle Medium (DMEM), enriched with 10% newborn calf serum (CS) at 37° C. and 5% CO2 and seeded in 48-well plates for lipolysis. After reaching confluence at day −2 the differentiation was induced by changing medium at day 0 to DMEM with 10% fetal calf serum (FCS) containing a hormone mix (HM) of 1 μg/ml insulin, 0.25 μM dexamethasone (Dex) and 0.5 mM 3-isobutyl-1-methylxanthine (IBMX). Medium is renewed every other day. At day 2, medium consisting of DMEM, 10% FCS and 1 μg/ml insulin is added. From day 4 on, only DMEM containing 10% FCS is used for further cultivation of cells. For determination of lipolysis, compounds of interest are added at day 10 for 20 hours mixed with bovine serum albumin (BSA). If lipolysis occurs, cells secrete glycerol into the supernatant. Therefore, supernatants are harvested and determination of lipolysis is performed by using a free glycerol reagent. The quantification of the free glycerol is carried out on the basis of an enzymatic method with a free glycerol reagent.
The lipolysis in the presence of the test substances is calculated according to the following equation:
[formula] wherein • A test substance=absorption of the wells with test substance and with cells • A control=absorption of the wells without test substance, but with cells • A control without cells=absorption of the wells without test substance and without cells

In the case of `CCCc1cc(OC)c2c(c1)C(C)C(c1ccc(O)c(OC)c1)O2` (stereo not shown) [compound of formula (I), 2-Methoxy-4-(7-methoxy-3-methyl-5-propyl-2,3-dihydro-benzofuran-2-yl)-phenol], the “IC50 calculated from the inhibition of radical formation” value in assay [1] is listed as 11.0 ppm. For the same compound, the “Stimulation of expression at day 2, C/EBPα” value in assay [2] (1 μM) is listed as 1.1; in assay [2] (10 μM), 2.2. In addition, the “Stimulation of expression at day 2, Adiponectin” value in the assay on adiponectin (1 μM) is reported as 1.4; in the assay with adiponectin (10 μM) it was 2.2. Also, the “Relative lipolysis compared to basal lipolysis” value in assay [3] (1 μM) was 85% ± 1.6; in assay [3] (10 μM) it was 85% ± 1.5.
